Test results from patent US7560227B2, “Biomarkers of vulnerable atherosclerotic plaques and methods of use” (University of Massachusetts, priority 2005, dated 2009).
Where a SMILES comes first, the peptide text is derived from it. Bridges are numbered along the chain shown (N, C = ends). Where no end group is shown, it is not given here.

Experiments:
myeloperoxidase [1] = target: T1, myeloperoxidase (Homo sapiens, UniProt P05164); experiment: Histological staining of bone marrow tissue slides with biotinylated peptides; conditions: biotinylated peptide, anti-biotin antibody, ABC alkaline phosphatase kit, hematoxylin counterstain
T1 construct: Slides of bone marrow tissue were used since they are known to contain myeloperoxidase; from tissue; host or cells: bone marrow tissue slides
T1 sequence (P05164 49-745): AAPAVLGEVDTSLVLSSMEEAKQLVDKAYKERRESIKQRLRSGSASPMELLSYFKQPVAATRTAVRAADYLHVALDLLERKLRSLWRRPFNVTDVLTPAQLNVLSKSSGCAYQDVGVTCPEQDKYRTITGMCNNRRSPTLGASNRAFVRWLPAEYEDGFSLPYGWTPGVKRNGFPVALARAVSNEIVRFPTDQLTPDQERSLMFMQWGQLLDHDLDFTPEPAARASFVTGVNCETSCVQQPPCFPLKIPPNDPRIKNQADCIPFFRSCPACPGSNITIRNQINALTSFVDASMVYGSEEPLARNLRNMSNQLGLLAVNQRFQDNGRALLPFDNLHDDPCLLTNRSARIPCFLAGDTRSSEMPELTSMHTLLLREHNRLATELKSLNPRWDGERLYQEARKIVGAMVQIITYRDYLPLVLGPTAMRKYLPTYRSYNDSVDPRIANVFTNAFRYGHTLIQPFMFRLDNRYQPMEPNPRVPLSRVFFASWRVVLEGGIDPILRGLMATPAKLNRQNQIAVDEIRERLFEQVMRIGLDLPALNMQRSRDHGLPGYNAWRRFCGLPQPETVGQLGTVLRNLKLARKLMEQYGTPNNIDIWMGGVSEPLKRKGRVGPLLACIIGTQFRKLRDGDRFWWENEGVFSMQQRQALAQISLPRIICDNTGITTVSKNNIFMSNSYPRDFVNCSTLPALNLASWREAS
Method: FIGS. 9A-9D show the results of histological studies. Slides of bone marrow tissue were used since they are known to contain myeloperoxidase. Treatments were as follows: Figure 9A, anti-myeloperoxidase antibody followed with biotinylated secondary antibody; FIG. 9B, biotinylated twenty-three mer MPO-17 peptide; FIG. 9C, biotinylated twenty-three mer control peptide; FIG. 9D, incubated with both the biotinylated twenty-three mer MPO-17 peptide and the biotinylated twenty-three mer control peptide, without primary antibody. Each slide was treated with an anti-biotin antibody and the ABC alkaline phosphatase kit (Vector labs) and counterstained with hematoxylin.
The binding of identified peptides to components of plaques was confirmed histologically as follows. Peptide sequences found in multiple selected clones were used to produce peptides using synthetic techniques. Peptides may also be produced using recombinant DNA techniques. The peptides are conjugated with a detectable label, such as biotin using known protocols. The biotin-labeled peptides are used to confirm the binding specificity determined in Example 1 and Example 2 by immunohistochemical analyses of tissue such as vulnerable plaques or tissues rich in components vulnerable plaques that have been exposed to biotin-labeled peptides.
FIGS. 9A-9D show the results of such histological studies. […]

myeloperoxidase [2] = target: T2, myeloperoxidase (Homo sapiens, UniProt P05164); experiment: SE-HPLC (Superose-12) evaluation of twenty-three mer peptide binding to myeloperoxidase; conditions: for Shift to a retention time associated with myeloperoxidase: SE-HPLC, Superose-12 column, over incubation time
Method: (§1) FIGS. 7A and 7B are graphical representations of the results an evaluation of twenty- three mer peptide binding by SE-HPLC using a Superose-12 column. […] For example, the UV peak for the enzyme increased from 16% of total protein at 5 mm of incubation to 46% of total protein after 2 h incubation.
as §1, with “results of” for “results”, “of MPO-17 twenty-three” for “of twenty- three”, “mer polypeptide” for “mer peptide”, “5 min” for “5 mm”, “2 hours” for “2 h”

[3] = test system: LS-174T colon cancer cells; experiment: Binding of 99mTc-labeled phage to LS-174T colon cancer cells in vitro; format: cell-based; conditions: for Relative Binding: Table 6, relative to control phage A3-12; for Binding compared to the control phage (A3-12): 6×10^5 cells per 50 μl, ~1.5×10^11 virions 99mTc-labeled phage
Method: For in vitro studies, LS-174T colon cancer cells, known to express the TAG-72 protein were incubated at a fixed ratio of cells (6×10^5 per 50 μl) to ^99mTc-labeled phage, ˜1.5×10^11 virions.

LS-174T tumor cubes = experiment: Binding of 99mTc-labeled phage to LS-174T solid tumor cubes; conditions: ~1 mm tumor cubes incubated with serial dilutions of 99mTc-labeled phage
Method: Since TAG-72 expression is known to be higher in solid tumors than cells from culture, LS-174T cells were grown in nude mice, the resulting tumors removed and cut into ˜1 mm cubes for an assay using solid tumors. In addition to the labeled phage, the ^99mTc-labeled antibody was used to evaluate the level of antigen expression in tumor. For assay the tumor cubes were incubated with serial dilutions of ^99mTc-labeled phage or the ^99mTc-B72.3 antibody.

myeloperoxidase [4] = target: T2, myeloperoxidase; experiment: Binding of 99mTc-labeled phage clones to 125I-myeloperoxidase, separated on spin column / Sepharose 6B column; conditions: for Relative Binding (% bound): 99mTc-phage (10^10 pfu) with 125I-myeloperoxidase (750 ng), 15-30 minutes at 4 degrees Celsius, after subtraction of binding by control phage MPO-4; for Binding to 125I-myeloperoxidase compared with control clone MPO-4 (in words): shift of 125I to higher molecular weight fractions associated with 99mTc-phage
Method: (§2) FIG. 6 is a graphical representation of the results of studies of the binding of several phage clones to ^125-myeloperoxidase where the relative magnitude of binding was MPO-17>MPO-6>MPO-15 >MPO-1 >control (MPO-4). The consensus phage clones were radiolabeled with ^99mTc, using mercaptoacetyltriglycine (MAG3) as chelator, and the myeloperoxidase was iodinated using iodogen. The ^99mTc-phage were incubated with the ^125I-myeloperoxidase for 15-30 minutes, and then separated on a Sepharose 6B column. The shift of ^125I to the higher molecular weight fractions associated with ^99mTc-phage indicated binding.
After three rounds of selection, twenty phage clones were sequenced and four peptides occurring in more than one clone were identified. The phage clones representing the four sequences occurring in more than one clone plus a clone having a sequence that occurred in no other selected clone were amplified, titered and conjugated with NHS-MAG3 for radiolabeling with ^99mTc. See Winnard, P. Jr, et al., Preparation and use of NHS-MAG3 for technetium-99m labeling of DNA, Nucl. Med. Biol. 1997 July; 24(5):425-32. Myeloperoxidase was radiolabeled with ^125I via iodogen and a fixed amount (750 ng) was incubated with a constant number of phage plaque forming units (10^10) of each of the four consensus clones, plus a non-consensus clone as control, each radiolabeled with ^99mTc. Myeloperoxidase was added at what was estimated to be a 10-fold molar excess over peptide. After incubating for 15-30 minutes at 4 degrees Celsius, the binding of myeloperoxidase to each phage clone was determined by separating phage from myeloperoxidase using both a MicroSpin S-200 HR spin column and a Sepharose 6B open mini-column. The ^99mTc counts were used to identify the phage-containing fractions while the 125I counts in those fractions identified the concentration of bound myeloperoxidase. The peptide sequences of the 16 mer cysteine-constrained peptides in the display domain of the PVIII coat protein and the relative binding of four clones (MPO-1, MPO-6, MPO-15 and MPO-17) are listed in Table 2, below.
as §2, with “FIG. 8” for “FIG. 6”, “several bacteriophage” for “several phage”, “to ^125I-myeloperoxidase” for “to ^125-myeloperoxidase”, “was MPO-17>MPO-6>MPO-15>MPO-1>control” for “was MPO-17>MPO-6>MPO-15 >MPO-1 >control”, “using MAG3” for “using mercaptoacetyltriglycine (MAG3)”

TAG-72 = experiment: Competition of unlabeled phage with 99mTc-labeled B72.3 antibody on LS-174T tumor cubes; format: binding; conditions: 1 ng 99mTc-labeled B72.3 antibody, serial dilutions of unlabeled phage
Method: To test if phage A3-10 could compete with the B72.3, the LS-174T tumor cubes were incubated with 1 ng of ^99mTc-labeled B72.3 antibody and serial dilutions of unlabeled A3-10 phage. […] Thus, the phage is likely blocking the antibody, an indication of binding to the same target.

Compound | Relative Binding [3] | Relative Binding (% bound) (myeloperoxidase [4]) | Binding to 125I-myeloperoxidase compared with control clone MPO-4 (in words) (myeloperoxidase [4]) | other results
CC(C)C[C@H](NC(=O)[C@@H]1CSSC[C@H](NC(=O)[C@H](CCC(N)=O)NC(=O)CNC(=O)[C@H](CO)NC(=O)[C@@H](N)CCCNC(=N)N)C(=O)N[C@@H](Cc2c[nH]cn2)C(=O)N[C@@H](CC(=O)O)C(=O)N[C@@H](CC(=O)O)C(=O)N[C@@H]([C@@H](C)O)C(=O)N[C@@H](Cc2c[nH]c3ccccc23)C(=O)N[C@@H](CC(N)=O)C(=O)N1)C(=O)N[C@@H](C)C(=O)N[C@@H](CS)C(=O)N[C@H](C(=O)NCC(=O)NCC(=O)N[C@@H](CO)C(=O)NCC(=O)NCC(=O)NCC(=O)N[C@@H](CS)C(=O)O)C(C)C [MPO-17 twenty-three mer peptide] (H-RSGQCHDDTWNCLACVGGSGGGC-OH; disulfide 5-12 (inferred); N-terminus and C-terminus assumed) | – | – | – | Staining pattern (myeloperoxidase [1]): staining pattern similar to that seen with the anti-myeloperoxidase antibody; Shift to a retention time associated with myeloperoxidase (myeloperoxidase [2]): gradual shift; UV peak for the enzyme (myeloperoxidase [2]; after 2 hours incubation of peptide with myeloperoxidase): 46 % of total protein; UV peak for the enzyme (myeloperoxidase [2]; at 5 min of incubation of peptide with myeloperoxidase): 16 % of total protein
QMKQCWVNTATCWGLSGGSGGGC (cysteine pairing not given here; also: biotinylated) [biotinylated for histology] | – | – | – | Staining pattern (myeloperoxidase [1]; listed as control peptide): Only the bkie hematoxylin stain is observed; Shift to a retention time associated with myeloperoxidase (myeloperoxidase [2]): no shift
LKNYCRKCSNRCTPTG [A3-21] | 1 | – | – | –
MNYYCHQTTKTCRTHS [A3-12] | 1 | – | – | Phage bound with phage added (LS-174T tumor cubes): no change in phage bound except at the highest concentration
TVMLCNPMEQGCRWMC (displayed on f88-4 phage pVIII; Chemically synthesized, clone MPO-15) [f88-4/Cys6 phage clone displaying this 16 mer cysteine-constrained peptide in the pVIII coat protein] | – | 4.5% | binding above the binding of the control clone MPO-4 | Relative Binding (% bound) (myeloperoxidase [4]; listed as MPO-5): 4.5%
NPGTCKDKWIECLLNG [A3-10] | 4.3 | – | – | Binding compared to the control phage (A3-12) [3]: 4,3 fold; Phage bound with phage added (LS-174T tumor cubes): linear increase in phage bound with phage added; Activity associated with the binding of 99mTc-B72.3 antibody (TAG-72): decreased with an increase in unlabeled phage added
AMPVCSLDRKACTAYQ [MPO-1] | – | 3.9% | binding above the binding of the control clone MPO-4 | –
HVLGCSYATNSCAHNA (displayed on f88-4 phage pVIII; Chemically synthesized, clone MPO-5) [MPO-6, f88-4/Cys6 phage clone displaying this 16 mer cysteine-constrained peptide in the pVIII coat protein] | – | 5.8% | binding above the binding of the control clone MPO-4 | –
RSGQCHDDTWNCLACV (displayed on f88-4 phage pVIII; Chemically synthesized, clone MPO-17) [f88-4/Cys6 phage clone displaying this 16 mer cysteine-constrained peptide in the pVIII coat protein] | – | 8% | highest binding | –
NLIWCRKEFARCTSDM [A3-19] | 1.5 | – | – | Binding compared to the control phage (A3-12) [3]: about 1.5 fold
